The values below are quoted from earlier work in patent US20260137644A1, “COMPOSITIONS INCLUDING CAFFEIC ACID PHENETHYL ESTER” (XMK THERAPEUTICS INC., priority 2022, published 2026).

The subject of one data set is NFAT. The following applies: Jurkat cells.
Data set [1] relates to carrageenin-induced inflammation.

With `O=C(/C=C/c1ccc(O)c(O)c1)OCCc1ccccc1` [CAPE, 2-phenylethyl (E)-3-(3,4-dihydroxyphenyl)prop-2-enoate], the antimicrobial activity entry in the data set on Staphylococcus aureus, with Listeria monocytogenes, in the data set on Enterococcus faecalis and with Haemophilus influenzae was “active” each time. Further, in the data set on NFAT, the “binding with DNA and transcriptional activity of NFAT” value is listed as “inhibition”. The exudate volume result in data set [1] is recorded as “suppresses”. The leukocytes relocation result in data set [1] is “suppresses”. Further, the “interleukin-2 (IL-2) gene transcription and synthesis” value with interleukin-2 (IL-2) is listed as “inhibition”.
